The target in the assay is Recombinant human LSD1 (Homo sapiens, UniProt O60341). Put plainly: LSD1 inhibition assay (HTRF LSD1 Histone H3K4 mono-demethylation assay, me1->me0). It is filed as biochemical. The following applies: 20 nM recombinant human LSD1, 95 nM H3K4(me1) biotinylated peptide, 15 min preincubation, 60 min at 25° C., read-out: LSD1 inhibition IC50 (nM range). In outline:
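Recombinant human LSD1 (20 nM) pre-incubated 15 min with 10 semi-log compound doses, then 95 nM biotinylated H3K4me1 peptide for 60 min at 25 °C in pH 8.5 Tris/NaCl buffer with 10 μM FAD, 1 mM DTT. HTRF me0-antibody read after 90 min; IC50 from 4-parameter fit.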
In general terms: In TR-FRET formats the signal depends on donor and acceptor labels being close together.

This note sets out measurements from patent US20260209214A1, “LSD1 MODULATORS” (RECURSION PHARMACEUTICALS, INC., priority 2022, published 2026).

The term IC50 denotes the concentration needed to halve the response being measured.

Counter-ions that a name gives are not always drawn.

As to `Cn1cc(-c2c(CC3CNCCO3)cccc2-c2ccc(C#N)c(F)c2)cn1` (stereo not shown) [Example 153, 3-fluoro-2′-(1-methyl-1H-pyrazol-4-yl)-3′-[(morpholin-2-yl)methyl]-[1,1′-biphenyl]-4-carbonitrile], the 50% inhibitory concentration (IC50) was 25 to 100 nM.

As for `N#Cc1ccc(-c2cccc(COC3CCNC3)c2-c2cnco2)cc1F` (stereo not shown) [Example 154, 3-fluoro-2′-(1,3-oxazol-5-yl)-3′-[(pyrrolidin-3-yloxy)methyl]-[1,1′-biphenyl]-4-carbonitrile], the half-inhibitory concentration (IC50) lay within 10 to 25 nM.

On to `CC1(O)CCN(c2ccc(CC3CNCCO3)c(F)c2-c2ccc(C#N)c(F)c2)CC1` (stereo not shown) [Example 155, 2′,3-difluoro-6′-(4-hydroxy-4-methylpiperidin-1-yl)-3′-[(morpholin-2-yl)methyl]-[1,1′-biphenyl]-4-carbonitrile], for which the concentration for half-maximal inhibition (IC50) lay within 100 to 1000 nM.

Turning to `Cn1nccc1-c1c(CC2CNCCO2)cccc1-c1ccc(C#N)c(F)c1` (stereo not shown) [Example 156, 3-fluoro-2′-(1-methyl-1H-pyrazol-5-yl)-3′-[(morpholin-2-yl)methyl]-[1,1′-biphenyl]-4-carbonitrile], the concentration for half-maximal inhibition (IC50) lay in the range of 25 to 100 nM.

In the case of `N#Cc1ccc(-c2cc(CC3CNCCO3)ccc2-c2ccn3cnnc3c2)cc1F` (stereo not shown) [Example 157, 3-fluoro-5′-[(morpholin-2-yl)methyl]-2′-{[1,2,4]triazolo[4,3-a]pyridin-7-yl}-[1,1′-biphenyl]-4-carbonitrile], the half-maximal inhibitory concentration (IC50) is greater than 1000 nM.

As to `N#Cc1ccc(-c2cc(CC3CNCCO3)ccc2C2CCOCC2)cc1F` (stereo not shown) [Example 158, 3-fluoro-5′-[(morpholin-2-yl)methyl]-2′-(oxan-4-yl)-[1,1′-biphenyl]-4-carbonitrile], the 50% inhibitory concentration (IC50) is greater than 1000 nM.

As for `N#Cc1ccc(-c2cccc(CC3CNCCO3)c2N2CC(O)C2)cc1F` (stereo not shown) [Example 159, 3-fluoro-2′-(3-hydroxyazetidin-1-yl)-3′-[(morpholin-2-yl)methyl]-[1,1′-biphenyl]-4-carbonitrile], the concentration for half-maximal inhibition (IC50) is greater than 1000 nM.

Turning to `N#Cc1ccc(-c2cc(CC3CN4CCC4CO3)ccc2N2CCC2)cc1F` (stereo not shown) [Example 160, 2′-(azetidin-1-yl)-3-fluoro-5′-({4-oxa-1-azabicyclo[4.2.0]octan-3-yl}methyl)-[1,1′-biphenyl]-4-carbonitrile], the 50% inhibitory concentration (IC50) is greater than 1000 nM.

Turning to `CCc1cc(CC2CNCCO2)cc(-c2ccc(C#N)cc2)c1Cl` (stereo not shown) [Example 161, 2′-chloro-3′-ethyl-5′-[(morpholin-2-yl)methyl]-[1,1′-biphenyl]-4-carbonitrile], the IC50 was greater than 1000 nM.

For the molecule `N#Cc1ccc(-c2cc(CC3CNCCO3)ccc2C2CCCC2)cc1` (stereo not shown) [Example 162, 2′-cyclopentyl-5′-[(morpholin-2-yl)methyl]-[1,1′-biphenyl]-4-carbonitrile], the IC50 is greater than 1000 nM.

With `CC(C)N1CCOC(Cc2ccc(N3CCC3)c(-c3ccc(C#N)c(F)c3)c2)C1` (stereo not shown) [Example 163, 2′-(azetidin-1-yl)-3-fluoro-5′-{[4-(propan-2-yl)morpholin-2-yl]methyl}-[1,1′-biphenyl]-4-carbonitrile], the IC50 fell in the range of 100 to 1000 nM.

`CCN1CCN(c2ccc(CC3CNCCO3)cc2-c2ccc(C#N)c(F)c2)CC1` (stereo not shown) [Example 164, 2′-(4-ethylpiperazin-1-yl)-3-fluoro-5′-[(morpholin-2-yl)methyl]-[1,1′-biphenyl]-4-carbonitrile]: the IC50 was 100 to 1000 nM.

With `CC1(O)CC2(CN(c3ccc(CC4CNCCO4)cc3-c3ccc(C#N)c(F)c3)C2)C1` (stereo not shown) [Example 165, 3-fluoro-2′-{6-hydroxy-6-methyl-2-azaspiro[3.3]heptan-2-yl}-5′-[(morpholin-2-yl)methyl]-[1,1′-biphenyl]-4-carbonitrile], the 50% inhibitory concentration (IC50) was in the range of 100 to 1000 nM.

As for `CN1CCC(O)(Cc2cccc(-c3ccc(C#N)c(F)c3)c2C2CC2)CC1` [Example 166, 2′-cyclopropyl-3-fluoro-3′-[(4-hydroxy-1-methylpiperidin-4-yl)methyl]-[1,1′-biphenyl]-4-carbonitrile], the IC50 lay in the range of 100 to 1000 nM.

For `N#Cc1ccc(-c2cc(CC3CNCCO3)ccc2N2CCOCC2)cc1F` (stereo not shown) [Example 167, 3-fluoro-5′-[(morpholin-2-yl)methyl]-2′-(morpholin-4-yl)-[1,1′-biphenyl]-4-carbonitrile], the IC50 is greater than 1000 nM.

With `N#Cc1ccc(-c2cc(C3CNCCO3)ccc2N2CCCCC2)cc1F` (stereo not shown) [Example 168, 3-fluoro-5′-(morpholin-2-yl)-2′-(piperidin-1-yl)-[1,1′-biphenyl]-4-carbonitrile], the IC50 fell in the range of 100 to 1000 nM.

On to `N#Cc1ccc(-c2cccc(CN3C[C@]4(N)CC[C@H]3C4)c2-c2ccns2)cc1F` [Example 171, 4-[3-[[(1S,4S)-4-amino-2-azabicyclo[2.2.1]heptan-2-yl]methyl]-2-isothiazol-5-yl-phenyl]-2-fluoro-benzonitrile hydrochloride], for which the concentration for half-maximal inhibition (IC50) lay within 10 to 25 nM.

Turning to `N#Cc1ccc(-c2cccc(CN3C[C@]4(N)CC[C@H]3C4)c2N2CCC2)cc1F` [Example 172, N[C@@]12CC[C@@H](C1)N(Cc3cccc(c4ccc(C#N)c(F)c4)c3N5CCC5)C2], the IC50 fell in the range of 10 to 25 nM.

Regarding `N#Cc1ccc(-c2cccc(CN3C[C@]4(N)CC[C@H]3C4)c2-c2ocnc2F)cc1F` [Example 174, 3'-{[(1S,4S)-4-amino-2-azabicyclo[2.2.1]heptan-2-yl]methyl}-3-fluoro-2'-(4-fluoro-1,3-oxazol-5-yl)-[1,1'-biphenyl]-4-carbonitrile], the IC50 fell in the range of 10 to 25 nM.

With `N#Cc1ccc(-c2cccc(CN3C[C@]4(N)CC[C@H]3C4)c2OC(F)F)cc1F` [Example 177, 3'-{[(1S,4S)-4-amino-2-azabicyclo[2.2.1]heptan-2-yl]methyl}-2'-(difluoromethoxy)-3-fluoro-[1,1'-biphenyl]-4-carbonitrile], the 50% inhibitory concentration (IC50) was less than 10 nM.

On to `N#Cc1ccc(-c2cccc(CN3C[C@]4(N)CC[C@H]3C4)c2C2CC2)cc1` [Example 184, 3'-{[(1S,4S)-4-amino-2-azabicyclo[2.2.1]heptan-2-yl]methyl}-2'-cyclopropyl-[1,1'-biphenyl]-4-carbonitrile], for which the IC50 fell in the range of 25 to 100 nM.

For the molecule `N#Cc1ccc(-c2ccc(F)c(CN3C[C@]4(N)CC[C@H]3C4)c2-c2ccns2)cc1F` [Example 185, 3'-{[(1S,4S)-4-amino-2-azabicyclo[2.2.1]heptan-2-yl]methyl}-3,4'-difluoro-2'-(1,2-thiazol-5-yl)-[1,1'-biphenyl]-4-carbonitrile], the IC50 was less than 10 nM.

For the molecule `N#Cc1ccc(-c2cccc(CN3C[C@]4(N)CC[C@H]3C4)c2-c2scnc2Cl)cc1F` [Example 188, 3'-{[(1S,4S)-4-amino-2-azabicyclo[2.2.1]heptan-2-yl]methyl}-2'-(4-chloro-1,3-thiazol-5-yl)-3-fluoro-[1,1'-biphenyl]-4-carbonitrile], the IC50 lay in the range of 10 to 25 nM.

Consider `N#Cc1ccc(-c2ccc(F)c(CN3C[C@]4(N)CC[C@H]3C4)c2C2CC2)cc1F` [Example 189, 3'-{[(1S,4S)-4-amino-2-azabicyclo[2.2.1]heptan-2-yl]methyl}-2'-cyclopropyl-3,4'-difluoro-[1,1'-biphenyl]-4-carbonitrile], for which the IC50 fell in the range of 10 to 25 nM.

For the molecule `N#Cc1ccc(-c2cccc(CN3[C@@H]4CC[C@H]3[C@@H](N)C4)c2-c2ccns2)cc1F` [Example 192, N[C@H]1C[C@H]2CC[C@@H]1N2Cc3cccc(c4ccc(C#N)c(F)c4)c3c5ccns5], the IC50 was less than 10 nM.
